Assay results: patent US10822346B2, “Meglumine salts of thienopyrimidines” (Cardurion Pharmaceuticals, LLC, priority 2018, dated 2020)

Tests used:
[1] = Solid form stability on drying under vacuum; format: physicochemical; conditions: crystalline salts; crystal form after drying
Description: (§1) Initial studies identified thienopyrimidine carboxylic acids as PDE9 inhibitors which could be used to treat or prevent HF. […] In further studies, the potassium salt was identified as a candidate for formulation because it was soluble, provided high exposure in preclinical toxicology studies, and was relatively easy to scale up. […] Unexpectedly the monohydrate crystalline meglumine salt of the thienopyrimidine compounds afforded the desired properties for a pharmaceutical formulation, as shown in Table 5.

[2] = Hygroscopicity by Dynamic Vapor Sorption; format: physicochemical; conditions: for Hygroscopicity: DVS weight gain: Dynamic Vapor Sorption @ 25° C./95% RH
Description: as §1

[3] = Dog pharmacokinetic study; format: in vivo, dogs; conditions: for AUClast / Cmax / Tmax: healthy dogs, N = 4 animals/arm, fasted overnight, pentagastrin 30 min prior to dosing, mean plasma profile
Protocol: Healthy dogs were used to study different salt candidates to evaluate the pharmacokinetic profile of each candidate. Six treatment arms were employed:
Animals were fasted overnight with free access to water. Pentagastrin (PG) (6 μg/kg, IM) was administered 30 min prior to dosing. Food was resumed 4 h post dose.

[4] = Solubility in pharmaceutically acceptable formulation; format: physicochemical; conditions: in any pharmaceutically acceptable formulation
Description: as §1

[5] = Exposure in preclinical toxicology studies; conditions: in vivo
Description: as §1

Row | Compound | Stability: Drying under vaccum @50 for 36 hrs [1] | Hygroscopicity: DVS weight gain [2] | AUClast [3] | Cmax [3] | Tmax [3] | Solubility (in words) [4] | Exposure in preclinical toxicology studies (in words) [5] | Hygroscopicity (in words) [2] | Pharmacokinetic profile (in words) ([3]; dogs, compared with other salts) | Exposure compared with free acid and potassium salt dosed as solutions (in words) ([3]; dogs, powder in a capsule (PIC))
1 | Cc1c(C(=O)O)sc2nc(Cc3ccc(Cl)c(Cl)c3)[nH]c(=O)c12.NCCCC[C@H](N)C(=O)O [compound 9, lysine 2-(3,4-dichlorobenzyl)-5-methyl-4-oxo-3,4-dihydrothieno[2,3-d]pyrimidine-6-carboxylate] | changes | 6.4% | 495 ng·h/mL | 78.4 ng/mL | 3.50 h | – | – | – | – | –
2 | [K+] [Potassium] | changes | 8-22.5% | 966 ng·h/mL | 398 ng/mL | 1.25 h | soluble | high exposure | – | – | –
3 | Cc1c(C(=O)O)sc2nc(Cc3ccc(Cl)c(Cl)c3)[nH]c(=O)c12.N=C(N)NCCC[C@H](N)C(=O)O [compound 8, arginine 2-(3,4-dichlorobenzyl)-5-methyl-4-oxo-3,4-dihydrothieno[2,3-d]pyrimidine-6-carboxylate] | changes | 5.9% | 705 ng·h/mL | 246 ng/mL | 1.38 h | – | – | – | – | –
4 | CNCC(O)C(O)C(O)C(O)CO.Cc1c(C(=O)O)sc2nc(Cc3ccc(Cl)c(Cl)c3)[nH]c(=O)c12.O [compound 4, meglumine 2-(3,4-dichlorobenzyl)-5-methyl-4-oxo-3,4-dihydrothieno[2,3-d]pyrimidine-6-carboxylate monohydrate] | unchanged | 0.7% | 1008 ng·h/mL | 280 ng/mL | 1.13 h | – | – | low hygroscopicity | superior pharmacokinetic profile | comparable exposure
